Data taken from ChEMBL document CHEMBL1201862, “PubChem BioAssay data set” (2004).
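In this assay, cells in 96-well plates receive the compound at five concentrations for 48 hours. Endpoints are linearly interpolated between the surrounding concentrations. GI50 marks 50% less growth.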 The source made the active and inactive calls. Rule as the data show it: active = GI50 up to about 1.1 µM and inactive = higher.

Experiments:
Test in all cases: growth of human tumour cells (NCI), 48 h
UACC-62 = system: UACC-62
OVCAR-3 = system: OVCAR-3
SF-268 = system: SF-268
HT-29 = system: HT-29
OVCAR-8 = system: OVCAR-8
SK-OV-3 = system: SK-OV-3
SK-MEL-2 = system: SK-MEL-2
HOP-62 = system: HOP-62
CCRF-CEM = system: CCRF-CEM
EKVX = system: EKVX
SW-620 = system: SW-620
A498 = system: A498
MDA-N = system: MDA-N
DU-145 = system: DU-145
LOX IMVI = system: LOX IMVI
UACC-257 = system: UACC-257
NCI-H522 = system: NCI-H522
MCF7 = system: MCF7
RXF 393 = system: RXF 393
T47D = system: T47D
HCC 2998 = system: HCC 2998
NCI/ADR-RES = system: NCI/ADR-RES
U-251 = system: U-251
PC-3 = system: PC-3
SK-MEL-28 = system: SK-MEL-28
NCI-H23 = system: NCI-H23
KM12 = system: KM12
HOP-92 = system: HOP-92
MDA-MB-231 = system: MDA-MB-231
ACHN = system: ACHN
MDA-MB-435 = system: MDA-MB-435
SK-MEL-5 = system: SK-MEL-5
TK-10 = system: TK-10
SNB-19 = system: SNB-19
786-0 = system: 786-0
A549 = system: A549
RPMI-8226 = system: RPMI-8226
COLO 205 = system: COLO 205
UO-31 = system: UO-31
HL-60 = system: HL-60
OVCAR-5 = system: OVCAR-5
M14 = system: M14
HCT-116 = system: HCT-116
HCT-15 = system: HCT-15
SF-295 = system: SF-295
OVCAR-4 = system: OVCAR-4
K562 = system: K562
SN12C = system: SN12C
MOLT-4 = system: MOLT-4
Hs-578T = system: Hs-578T
NCI-H226 = system: NCI-H226
NCI-H460 = system: NCI-H460
SF-539 = system: SF-539
BT-549 = system: BT-549
IGROV-1 = system: IGROV-1
SNB-75 = system: SNB-75
Malme-3M = system: Malme-3M
CAKI-1 = system: CAKI-1

CN(C)c1ccc(/C=C(\NC(=O)c2ccccc2)c2nn(C)c(=O)o2)cc1
GI50 (UACC-62): > 100 µM (inactive)
GI50 (OVCAR-3): 43.9 µM (inactive)
GI50 (SF-268): 44.1 µM (inactive)
GI50 (HT-29): 90.8 µM (inactive)
GI50 (OVCAR-8): 26.7 µM (inactive)
GI50 (SK-OV-3): > 100 µM (inactive)
GI50 (SK-MEL-2): 52.5 µM (inactive)
GI50 (HOP-62): 18.1 µM (inactive)
GI50 (CCRF-CEM): 34.7 µM (inactive)
GI50 (EKVX): > 100 µM (inactive)
GI50 (SW-620): 52 µM (inactive)
GI50 (A498): > 100 µM (inactive)
GI50 (MDA-N): 53.6 µM (inactive)
GI50 (DU-145): > 100 µM (inactive)
GI50 (LOX IMVI): 60.1 µM (inactive)
GI50 (UACC-257): 33 µM (inactive)
GI50 (NCI-H522): 17.6 µM (inactive)
GI50 (MCF7): > 100 µM (inactive)
GI50 (RXF 393): > 100 µM (inactive)
GI50 (T47D): > 100 µM (inactive)
GI50 (HCC 2998): > 100 µM (inactive)
GI50 (NCI/ADR-RES): 21.7 µM (inactive)
GI50 (U-251): 24 µM (inactive)
GI50 (PC-3): > 100 µM (inactive)
GI50 (SK-MEL-28): > 100 µM (inactive)
GI50 (NCI-H23): > 100 µM (inactive)
GI50 (KM12): 37.6 µM (inactive)
GI50 (HOP-92): > 100 µM (inactive)
GI50 (MDA-MB-231): > 100 µM (inactive)
GI50 (ACHN): > 100 µM (inactive)
GI50 (MDA-MB-435): 69 µM (inactive)
GI50 (SK-MEL-5): 26.3 µM (inactive)
GI50 (TK-10): > 100 µM (inactive)
GI50 (SNB-19): 28.1 µM (inactive)
GI50 (786-0): 41.5 µM (inactive)
GI50 (A549): > 100 µM (inactive)
GI50 (RPMI-8226): 32 µM (inactive)
GI50 (COLO 205): > 100 µM (inactive)
GI50 (UO-31): > 100 µM (inactive)
GI50 (HL-60): 34.6 µM (inactive)
GI50 (OVCAR-5): > 100 µM (inactive)
GI50 (M14): 46 µM (inactive)
GI50 (HCT-116): > 100 µM (inactive)
GI50 (HCT-15): > 100 µM
GI50 (SF-295): 47.5 µM (inactive)
GI50 (OVCAR-4): 28.9 µM (inactive)
GI50 (K562): > 100 µM (inactive)
GI50 (SN12C): > 100 µM (inactive)
GI50 (MOLT-4): 35.3 µM (inactive)
GI50 (Hs-578T): 62.1 µM (inactive)
GI50 (NCI-H226): 23.4 µM (inactive)
GI50 (NCI-H460): 44.4 µM (inactive)
GI50 (SF-539): 33.5 µM (inactive)
GI50 (BT-549): > 100 µM (inactive)
GI50 (IGROV-1): 58.6 µM (inactive)
GI50 (SNB-75): 16.9 µM (inactive)
GI50 (Malme-3M): 78.2 µM (inactive)
GI50 (CAKI-1): > 100 µM (inactive)

N#CC(C#N)=Cc1ccc(C=C2SC3=C(SCCS3)S2)s1
GI50 (UACC-62): 2.89 µM (inactive)
GI50 (OVCAR-3): 2.5 µM (inactive)
GI50 (SF-268): 40.4 µM (inactive)
GI50 (HT-29): 3.39 µM (inactive)
GI50 (OVCAR-8): 29.9 µM (inactive)
GI50 (SK-OV-3): 74.8 µM (inactive)
GI50 (SK-MEL-2): > 100 µM (inactive)
GI50 (HOP-62): 80.9 µM (inactive)
GI50 (CCRF-CEM): 2.48 µM (inactive)
GI50 (EKVX): > 100 µM (inactive)
GI50 (SW-620): 4.38 µM (inactive)
GI50 (A498): 10.4 µM (inactive)
GI50 (MDA-N): 0.618 µM (active)
GI50 (DU-145): > 100 µM (inactive)
GI50 (UACC-257): 9.38 µM (inactive)
GI50 (NCI-H522): 2.99 µM (inactive)
GI50 (MCF7): 2.24 µM (inactive)
GI50 (T47D): > 100 µM (inactive)
GI50 (HCC 2998): 15.8 µM (inactive)
GI50 (NCI/ADR-RES): 1.63 µM (inactive)
GI50 (U-251): 12.4 µM (inactive)
GI50 (PC-3): 6.04 µM (inactive)
GI50 (SK-MEL-28): > 100 µM (inactive)
GI50 (NCI-H23): 6.68 µM (inactive)
GI50 (KM12): 2.25 µM (inactive)
GI50 (HOP-92): 17.6 µM (inactive)
GI50 (MDA-MB-231): 33.7 µM (inactive)
GI50 (ACHN): > 100 µM (inactive)
GI50 (MDA-MB-435): 0.82 µM (active)
GI50 (SK-MEL-5): 3.33 µM (inactive)
GI50 (TK-10): 2.07 µM (inactive)
GI50 (SNB-19): 44.1 µM (inactive)
GI50 (786-0): 13.4 µM (inactive)
GI50 (A549): 55.5 µM (inactive)
GI50 (RPMI-8226): 0.881 µM (active)
GI50 (COLO 205): 8.73 µM (inactive)
GI50 (UO-31): > 100 µM (inactive)
GI50 (HL-60): 0.286 µM (active)
GI50 (OVCAR-5): 3.72 µM (inactive)
GI50 (M14): 12.4 µM (inactive)
GI50 (HCT-116): 3.24 µM (inactive)
GI50 (HCT-15): 0.818 µM
GI50 (SF-295): 24.4 µM (inactive)
GI50 (OVCAR-4): 9.68 µM (inactive)
GI50 (SN12C): 66.2 µM (inactive)
GI50 (MOLT-4): 2.59 µM (inactive)
GI50 (Hs-578T): 41.6 µM (inactive)
GI50 (NCI-H226): 2.27 µM (inactive)
GI50 (NCI-H460): 7.59 µM (inactive)
GI50 (SF-539): 0.63 µM (active)
GI50 (BT-549): 1.28 µM (inactive)
GI50 (IGROV-1): 4.52 µM (inactive)
GI50 (SNB-75): 16.7 µM (inactive)
GI50 (Malme-3M): > 100 µM (inactive)
GI50 (CAKI-1): 3.47 µM (inactive)
